Test results: patent US8440710B2, “HSL inhibitors useful in the treatment of diabetes” (Hoffmann-La Roche Inc., priority 2009, dated 2013)

Molecular target: T1, human HSL (Homo sapiens, UniProt Q05469)
T1 construct: generate a full length human HSL ORF with a 3′-His6 tag; made in house; host or cells: High 5 insect cells (baculovirus, pFast-BAC)
T1 sequence (Q05469 1-1076): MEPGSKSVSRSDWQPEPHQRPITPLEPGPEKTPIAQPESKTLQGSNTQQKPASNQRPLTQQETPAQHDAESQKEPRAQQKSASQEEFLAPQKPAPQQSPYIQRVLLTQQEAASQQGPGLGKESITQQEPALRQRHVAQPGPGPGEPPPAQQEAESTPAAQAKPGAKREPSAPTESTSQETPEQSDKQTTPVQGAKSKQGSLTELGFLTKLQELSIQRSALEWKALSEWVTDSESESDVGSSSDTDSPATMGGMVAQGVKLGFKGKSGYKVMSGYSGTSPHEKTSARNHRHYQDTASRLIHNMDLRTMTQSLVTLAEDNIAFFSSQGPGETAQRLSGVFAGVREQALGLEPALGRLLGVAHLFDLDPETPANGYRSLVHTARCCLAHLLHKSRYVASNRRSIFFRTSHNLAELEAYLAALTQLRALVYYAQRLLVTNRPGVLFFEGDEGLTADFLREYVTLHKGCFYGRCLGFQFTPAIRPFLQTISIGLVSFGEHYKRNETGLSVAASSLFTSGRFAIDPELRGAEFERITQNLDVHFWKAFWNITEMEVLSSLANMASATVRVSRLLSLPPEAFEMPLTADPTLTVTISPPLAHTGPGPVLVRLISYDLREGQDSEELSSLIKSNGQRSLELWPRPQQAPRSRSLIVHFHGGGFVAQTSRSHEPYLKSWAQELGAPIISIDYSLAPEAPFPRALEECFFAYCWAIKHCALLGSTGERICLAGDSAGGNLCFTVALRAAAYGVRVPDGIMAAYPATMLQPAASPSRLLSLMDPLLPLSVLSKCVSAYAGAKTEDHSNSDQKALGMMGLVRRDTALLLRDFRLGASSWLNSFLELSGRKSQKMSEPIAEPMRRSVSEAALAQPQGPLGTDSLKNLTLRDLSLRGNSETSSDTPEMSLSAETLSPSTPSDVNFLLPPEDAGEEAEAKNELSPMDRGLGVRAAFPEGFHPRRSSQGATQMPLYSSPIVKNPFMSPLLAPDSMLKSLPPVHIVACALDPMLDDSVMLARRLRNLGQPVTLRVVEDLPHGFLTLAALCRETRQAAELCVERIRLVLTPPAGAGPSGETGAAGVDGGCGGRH
Experiment: Human Hormone-Sensitive Lipase (HSL) enzyme inhibition assay (colorimetric, DMPT substrate)
Type: biochemical
Conditions: human full length HSL-His6, 2,3-dimercapto-1-propanol tributyrate substrate, 37° C. 20 minutes, absorbance at 405 nm; read-out: HSL hum IC50
In short: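 Full-length human HSL with C-terminal His6, expressed in baculovirus-infected High 5 cells and Ni-NTA purified, was added (15 ug/ml stock) to 1.5 mM DMPT in 100 mM MOPS pH 7.2, 0.2 mg/ml fatty acid-free BSA containing compound. After 20 min at 37 °C, DTNB with SDS/Triton X-100 was added; A405 read after 15 min at RT.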

Structure (SMILES) | IC50 [nM]
CCc1ccc(N2CC[C@]3(CC[C@@](O)(COCCOC)CC3)C2=O)cc1 [Example 229, (5α,8α)-2-(4-Ethyl-phenyl)-8-hydroxy-8-(2-methoxy-ethoxymethyl)-2-aza-spiro[4.5]decan-1-one] | 130
CCc1ccc(N2CC[C@]3(CC[C@](O)(COCC(F)(F)F)CC3)C2=O)cc1 [Example 230, (5α,8β)-2-(4-Ethyl-phenyl)-8-hydroxy-8-(2,2,2-trifluoro-ethoxymethyl)-2-aza-spiro[4.5]decan-1-one] | 400
O=C1N(c2ccc(OCC(F)(F)F)cc2)CC[C@]12CC[C@](O)(COCC(F)(F)F)CC2 [Example 232, (5α,8β)-8-Hydroxy-8-(2,2,2-trifluoro-ethoxymethyl)-2-[4-(2,2,2-trifluoro-ethoxy)-phenyl]-2-aza-spiro[4.5]decan-1-one] | 290
CCCOC[C@]1(O)CC[C@@]2(CCN(c3ccc(OCC(F)(F)F)cc3)C2=O)CC1 [Example 235, (5α,8β)-8-Hydroxy-8-propoxymethyl-2-[4-(2,2,2-trifluoro-ethoxy)-phenyl]-2-aza-spiro[4.5]decan-1-one] | 630
CCCCOC[C@]1(O)CC[C@@]2(CCN(c3ccc(OCC(F)(F)F)cc3)C2=O)CC1 [Example 237, (5α,8β)-8-Butoxymethyl-8-hydroxy-2-[4-(2,2,2-trifluoro-ethoxy)-phenyl]-2-aza-spiro[4.5]decan-1-one] | 270
CCCCOC[C@]1(O)CC[C@]2(CCN(c3ccc(OCC(F)(F)F)cc3)C2=O)CC1 [Example 238, (5α,8α)-8-Butoxymethyl-8-hydroxy-2-[4-(2,2,2-trifluoro-ethoxy)-phenyl]-2-aza-spiro[4.5]decan-1-one] | 20
O=C1N(c2ccc(OCC(F)(F)F)cc2)CC[C@]12CC[C@](O)(COc1ccccc1)CC2 [Example 239, (5α,8β)-8-Hydroxy-8-phenoxymethyl-2-[4-(2,2,2-trifluoro-ethoxy)-phenyl]-2-aza-spiro[4.5]decan-1-one] | 140
O=C1N(c2ccc(OCC(F)(F)F)cc2)CC[C@]12CC[C@](O)(COCc1ccccc1)CC2 [Example 241, (5α,8β)-8-Benzyloxymethyl-8-hydroxy-2-[4-(2,2,2-trifluoro-ethoxy)-phenyl]-2-aza-spiro[4.5]decan-1-one] | 90

Continued by falling IC50, values first:

IC50 [nM] | Structure (SMILES)
40 | CCOC[C@]1(O)CC[C@]2(CCN(c3ccc(OCC(F)(F)F)cc3)C2=O)CC1 [Example 234, (5α,8α)-8-Ethoxymethyl-8-hydroxy-2-[4-(2,2,2-trifluoro-ethoxy)phenyl]-2-aza-spiro[4.5]decan-1-one]
20 | CCc1ccc(N2CC[C@]3(CC[C@@](O)(COCC(F)(F)F)CC3)C2=O)cc1 [Example 231, (5α,8α)-2-(4-Ethyl-phenyl)-8-hydroxy-8-(2,2,2-trifluoro-ethoxymethyl)-2-aza-spiro[4.5]decan-1-one]
20 | O=C1N(c2ccc(OCC(F)(F)F)cc2)CC[C@]12CC[C@@](O)(COCC(F)(F)F)CC2 [Example 233, (5α,8α)-8-Hydroxy-8-(2,2,2-trifluoro-ethoxymethyl)-2-[4-(2,2,2-trifluoro-ethoxy)-phenyl]-2-aza-spiro[4.5]decan-1-one]
20 | CCCOC[C@]1(O)CC[C@]2(CCN(c3ccc(OCC(F)(F)F)cc3)C2=O)CC1 [Example 236, (5α,8α)-8-Hydroxy-8-propoxymethyl-2-[4-(2,2,2-trifluoro-ethoxy)-phenyl]-2-aza-spiro[4.5]decan-1-one]
20 | O=C1N(c2ccc(OCC(F)(F)F)cc2)CC[C@]12CC[C@@](O)(COc1ccccc1)CC2 [Example 240, (5α,8α)-8-Hydroxy-8-phenoxymethyl-2-[4-(2,2,2-trifluoro-ethoxy)-phenyl]-2-aza-spiro[4.5]decan-1-one]
10 | O=C1N(c2ccc(OCC(F)(F)F)cc2)CC[C@]12CC[C@@](O)(COCc1ccccc1)CC2 [Example 242, (5α,8α)-8-Benzyloxymethyl-8-hydroxy-2-[4-(2,2,2-trifluoro-ethoxy)-phenyl]-2-aza-spiro[4.5]decan-1-one]
